The values below are quoted from earlier work in article PMC6547379 (The European respiratory journal, 2018).

For this data set, the system named is CF patients. Conditions: ref [34].

`Cc1c(-c2ccnn2C)cc(C(=O)NCc2ccc(S(C)(=O)=O)cn2)c(=O)n1-c1cccc(C(F)(F)F)c1` [AZD9668]: the “effect on inflammation / lung function in CF patients” value is “no effect on inflammation or lung function”.
